Assay [1] addresses gelatinase A catalytic domain (MMP02). Nature of the assay: Thiopeptolide assay, gelatinase A catalytic domain (GCD, MMP02). The format is biochemical. Particulars: Tables 2, 3, 5, 7; read-out: IC50 MMP-2CD. Here is the method:
(§1) Hydrolysis of the thiopeptolide substrate Ac-Pro-Leu-Gly-thioester-Leu-Leu-Gly-OEt (Bachem) is used as the primary screen to determine IC50 values for MMP inhibitors. A 100 μL reaction contains 1 mM 5,5'-dithiobis(2-nitrobenzoic acid) (DTNB), 100 μM substrate, 0.1% Brij, enzyme, and inhibitor in the appropriate reaction buffer. Activated full-length enzymes are assayed at 5 nM, Stromelysin Catalytic Domain (SCD) at 10 nM, and Gelatinase A Catalytic Domain (GaCD) at 1 nM. Inhibitors are screened from 100 μM to 1 nM. Full-length enzymes are assayed in 50 mM HEPES, 10 mM CaCl2, pH 7.0; SCD in 50 mM MES, 10 mM CaCl2, pH 6.0; and GaCD in 50 mM MOPS, 10 mM CaCl2, 10 μM ZnCl2, pH 7.0.

The target of a further assay is T1, MMP07 (Homo sapiens, UniProt P09237).
T1 construct: made in house; host or cells: Escherichia coli
T1 sequence (P09237 95-267): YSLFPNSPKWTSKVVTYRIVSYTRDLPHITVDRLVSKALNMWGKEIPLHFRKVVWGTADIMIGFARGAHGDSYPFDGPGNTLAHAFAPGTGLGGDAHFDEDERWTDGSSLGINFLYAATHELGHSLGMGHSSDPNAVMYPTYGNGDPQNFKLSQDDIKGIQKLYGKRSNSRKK
In words: Thiopeptolide assay, MMP07. The format is biochemical. To be noted: Tables 2, 3, 5, 7; read-out: IC50 MMP-7. Here is the method:
(§2) MMP01, MMP07, MMP09, and MMP13 activity was assayed in a method similar to MMP02 and MMP03 (SCD and GCD). MMP01 and MMP09 can be obtained from Washington University School of Medicine, St. Louis, Mo. MMP07 can be obtained in accordance with the known procedure set forth by Ye QZ, Johnson L. L., and Baragi V., "Gene Syntheses and Expression in E. coli for PUMP, a Human Matrix Metalloproteinase" Biochem. and Biophys. […] MMP 13 can be obtained in accordance with the known procedure set forth by Freije J. M. P., et al., "Molecular Cloning and Expression of Collegenase-3, a Novel Human Matrix Metalloproteinase Produced by Breast Carcinomas" J. Bio.
as §1

The target in assay [2] is T2, stromelysin-1 catalytic domain (MMP03) (Homo sapiens, UniProt P08254).
T2 construct: SCD (stromelysin-1 catalytic domain); made in house; host or cells: Escherichia coli
In words: Thiopeptolide assay, stromelysin-1 catalytic domain (SCD, MMP03). The class given is biochemical. To be noted: Tables 2, 3, 5, 7; read-out: IC50 MMP 3CD. Here is the method: as §1

Another assay deals with MMP-13CD. Nature of the assay: Thiopeptolide assay, MMP-13CD. To be noted: Tables 2, 3, 5, 7. The format is biochemical, human. Here is the method: IC50 values were determined using a thiopeptolide substrate, Ac-Pro-Leu-Gly-thioester-Leu-Leu-Gly-OEt (Ye Q.-Z., Johnson L. L., Hupe D. J., and Baragi V., "Purification and Characterization of the Human Stromelysin Catalytic Domain Expressed in Escherichia coli," Biochemistry, 1992;31:11231-11235). MMP01, MMP07, MMP09, and MMP13 activity was assayed in a method similar to MMP02 and MMP03 (SCD and GCD). MMP01 and MMP09 can be obtained from Washington University School of Medicine, St. Louis, Mo. MMP07 can be obtained in accordance with the known procedure set forth by Ye QZ, Johnson L. L., and Baragi V., "Gene Syntheses and Expression in E. coli for PUMP, a Human Matrix Metalloproteinase" Biochem. and Biophys. Res. Comm., 1992; 186:143-149. MMP 13 can be obtained in accordance with the known procedure set forth by Freije J. M. P., et al., "Molecular Cloning and Expression of Collegenase-3, a Novel Human Matrix Metalloproteinase Produced by Breast Carcinomas" J. Bio. Chem., 1994;269:16766-6773.
as §1, with “7.0. The change in absorbance at 405 riM is monitored on a ThermoMax microplate reader at room temperature continuously for 20 minutes.” for “7.0.”

For another assay, the target named is T3, MMP01 (Homo sapiens, UniProt P03956).
T3 construct: purchased Washington University School of Medicine, St. Louis, Mo
T3 sequence (P03956 100-469): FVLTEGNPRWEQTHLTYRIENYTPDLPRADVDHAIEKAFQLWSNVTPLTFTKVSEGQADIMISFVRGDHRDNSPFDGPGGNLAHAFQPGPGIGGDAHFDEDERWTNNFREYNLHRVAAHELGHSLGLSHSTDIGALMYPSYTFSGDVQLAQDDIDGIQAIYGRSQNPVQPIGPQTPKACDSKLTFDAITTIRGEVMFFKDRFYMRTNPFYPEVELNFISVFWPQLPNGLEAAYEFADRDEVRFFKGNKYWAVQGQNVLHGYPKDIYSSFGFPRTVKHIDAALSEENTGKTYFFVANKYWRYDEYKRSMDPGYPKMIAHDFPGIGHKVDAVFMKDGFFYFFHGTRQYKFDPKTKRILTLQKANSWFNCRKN
Nature of the assay: Thiopeptolide assay, MMP01. The class given is biochemical. To be noted: Tables 2, 3, 5, 7; read-out: IC50 MMP1. Here is the method: as §2, §1

Structures are written as SMILES.

By IC50 is commonly meant the concentration that gives 50% inhibition.

T2 sequence (P08254 100-272 limits assumed): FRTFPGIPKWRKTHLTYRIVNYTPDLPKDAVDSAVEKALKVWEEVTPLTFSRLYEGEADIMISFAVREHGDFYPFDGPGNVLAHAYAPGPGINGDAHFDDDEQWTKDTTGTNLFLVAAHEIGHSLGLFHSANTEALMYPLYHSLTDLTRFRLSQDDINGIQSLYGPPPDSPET

As for `O=C(CCCc1ccc([N+](=O)[O-])cc1)NCCCCC(NS(=O)(=O)c1ccc2oc3ccccc3c2c1)C(=O)O` (stereo not shown) [Example A21, 2-(Dibenzofuran-2-sulfonylamino)-6-[4-(4-nitro-phenyl)-butyrylamino]-hexanoic acid], the 50% inhibitory concentration (IC50) in assay [1] is 3.3 µM; at MMP07 it was greater than 100 µM; in assay [2] it was 7.5 µM; in the assay on MMP-13CD it was 9.2 µM; on MMP01, greater than 100 µM.
In the case of `O=C(CCc1ccncc1)NCCCCC(NS(=O)(=O)c1ccc2oc3ccccc3c2c1)C(=O)O` (stereo not shown) [Example A22, 2-(Dibenzofuran-2-sulfonylamino)-6-(3-pyridin4-yl-propionylamino)-hexanoic Acid], the IC50 was 3 µM in assay [1]; greater than 100 µM at MMP07; 9 µM in assay [2]; 10 µM in the assay with MMP-13CD; greater than 100 µM at MMP01.
As for `COc1ccccc1CCC(=O)NCCCCC(NS(=O)(=O)c1ccc2oc3ccccc3c2c1)C(=O)O` (stereo not shown) [Example A25], the half-maximal inhibitory concentration (IC50) in assay [1] was 1.8 µM; at MMP07, greater than 100 µM; in assay [2], 5.2 µM; in the assay with MMP-13CD, 5.2 µM; at MMP01 it was greater than 100 µM.
`O=C(CCCc1ccccc1)NCCCCC(NS(=O)(=O)c1ccc2oc3ccccc3c2c1)C(=O)O` (stereo not shown) [Example A26, 2-(Dibenzofuran-2-sulfonylamino)-6-(4-phenyl-butyrylamino)-hexanoic acid]: the IC50 in assay [1] is 1.5 µM; on MMP07 it was greater than 100 µM; in assay [2], 4.2 µM; in the assay on MMP-13CD, 5.4 µM; on MMP01, greater than 100 µM.
As to `Cc1ccc(CCC(=O)NCCCCC(NS(=O)(=O)c2ccc3oc4ccccc4c3c2)C(=O)O)cc1` (stereo not shown) [Example A27, 2-(Dibenzofuran-2-sulfonylamino)-6-(3-p-tolyl-propionylamino)-hexanoic acid], the IC50 in assay [1] was 1.1 µM; at MMP07, greater than 100 µM; in assay [2], 7.7 µM; with MMP-13CD, 5.8 µM; on MMP01, greater than 100 µM.
Turning to `O=C(CCc1ccc(Cl)cc1)NCCCCC(NS(=O)(=O)c1ccc2oc3ccccc3c2c1)C(=O)O` (stereo not shown) [Example A28, 6-[3-(4-Chloro-phenyl)-propionylamino]-2-(dibenzofuran-2-sulfonylamino)-hexanoic acid], the half-inhibitory concentration (IC50) in assay [1] was 1.8 µM; at MMP07, greater than 100 µM; in assay [2], 4.5 µM; in the assay with MMP-13CD, 8.7 µM; on MMP01, greater than 100 µM.
Turning to `O=C(CCCc1c[nH]c2ccccc12)NCCCCC(NS(=O)(=O)c1ccc2oc3ccccc3c2c1)C(=O)O` (stereo not shown) [Example A31, 2-(Dibenzofuran-2-sulfonylamino)-6-(4-1H-indol-3-yl-butyrylamino)-hexanoic acid], the 50% inhibitory concentration (IC50) in assay [1] was 3.3 µM; at MMP07, greater than 100 µM; in assay [2], 6.4 µM; in the assay with MMP-13CD it was 12.8 µM; on MMP01 it was greater than 100 µM.
`O=C(CCCc1cccs1)NCCCCC(NS(=O)(=O)c1ccc2oc3ccccc3c2c1)C(=O)O` (stereo not shown) [Example A35, 2-(Dibenzofuran-2-sulfonylamino)-6-[4-thiophen-2-yl-butyrylamino)-hexanoic acid]: the 50% inhibitory concentration (IC50) in assay [1] was 1.1 µM; on MMP07 it was greater than 100 µM; in assay [2], 1.7 µM; with MMP-13CD it was 4.4 µM; at MMP01 it was greater than 100 µM.
`O=C(O)C(CCCCNC(=O)C1(c2ccccc2)CC1)NS(=O)(=O)c1ccc2oc3ccccc3c2c1` (stereo not shown) [Example A38, 2-(Dibenzofuran-2-sulfonylamino)-6-(1-phenyl-cyclopropanecarbonylamino)-hexanoic acid]: the IC50 in assay [1] is 0.6 µM; at MMP07, greater than 100 µM; in assay [2] it was 1.4 µM; in the assay on MMP-13CD, 4.2 µM; at MMP01, greater than 100 µM.
Take `COc1ccc(NC(=O)NCCCCC(NS(=O)(=O)c2ccc3oc4ccccc4c3c2)C(=O)O)cc1` (stereo not shown) [Example B1, 2-(Dibenzofuran-2-sulfonylamino)-6-[3-(4-methoxy-phenyl)-ureido]-hexanoic acid]: the IC50 is 2.7 µM in assay [1]; greater than 100 µM on MMP07; 8.8 µM in assay [2]; 14.2 µM in the assay with MMP-13CD; greater than 100 µM at MMP01.
With `O=C(NCCCCC(NS(=O)(=O)c1ccc2oc3ccccc3c2c1)C(=O)O)Nc1ccc(Cl)c(Cl)c1` (stereo not shown) [Example B2, 2-(Dibenzofuran-2-sulfonylamino)-6-[3-(3,4dichloro-phenyl)-ureido]-hexanoicacid], the half-inhibitory concentration (IC50) in assay [1] is 22.2 µM; at MMP07, greater than 100 µM; in assay [2] it was 89.3 µM; in the assay with MMP-13CD, greater than 100 µM; on MMP01, greater than 100 µM.
In the case of `O=C(O)C(CCCCNC(=S)Nc1cccnc1)NS(=O)(=O)c1ccc2oc3ccccc3c2c1` (stereo not shown) [Example B3, 2-(Dibenzofuran-2-sulfonylamino)-6-(3-pyridin-3-yl-thioureido)-hexanoic acid], the IC50 in assay [1] is 2.1 µM; on MMP07, 93.5 µM; in assay [2] it was 6.1 µM; in the assay on MMP-13CD it was 13.6 µM; on MMP01, greater than 100 µM.
Regarding `O=C(O)C(CCCCNC(=S)NC(c1ccccc1)c1ccccc1)NS(=O)(=O)c1ccc2oc3ccccc3c2c1` (stereo not shown) [Example B4, 6-(3-Benzhydryl-thioureido)-2-(dibenzofiuran-2-sulfonylamino)-hexanoic acid], the IC50 is 9.1 µM in assay [1]; greater than 100 µM at MMP07; 8.1 µM in assay [2]; 20.5 µM with MMP-13CD; greater than 100 µM at MMP01.
For `O=C(O)C(CCCCNC(=S)NCc1ccccc1)NS(=O)(=O)c1ccc2oc3ccccc3c2c1` (stereo not shown) [Example B5, 6-(3-Benzyl-thioureido)-2-(dibenzofuran-2-sulfonylamino)-hexanoic acid], the IC50 in assay [1] is 1.2 µM; at MMP07, greater than 100 µM; in assay [2] it was 2.3 µM; with MMP-13CD, 3.3 µM; at MMP01, greater than 100 µM.

The record behind these values is US6294674A, “Dibenzofuran sulfonamide matrix metalloproteinase inhibitors” (priority 1999, dated 2001).
